IC50 data for 14 molecules are collected here from patent publication US20240067655A1 (NEURON23, INC., priority 2020, published 2024).

The target in experiment [1] is T1, wt human NUAK1, full length (Homo sapiens, UniProt O60285).
T1 construct: 8 nM wt human NUAK1, full length (ThermoFisher/USA); purchased ThermoFisher/USA
T1 sequence (O60285 1-661): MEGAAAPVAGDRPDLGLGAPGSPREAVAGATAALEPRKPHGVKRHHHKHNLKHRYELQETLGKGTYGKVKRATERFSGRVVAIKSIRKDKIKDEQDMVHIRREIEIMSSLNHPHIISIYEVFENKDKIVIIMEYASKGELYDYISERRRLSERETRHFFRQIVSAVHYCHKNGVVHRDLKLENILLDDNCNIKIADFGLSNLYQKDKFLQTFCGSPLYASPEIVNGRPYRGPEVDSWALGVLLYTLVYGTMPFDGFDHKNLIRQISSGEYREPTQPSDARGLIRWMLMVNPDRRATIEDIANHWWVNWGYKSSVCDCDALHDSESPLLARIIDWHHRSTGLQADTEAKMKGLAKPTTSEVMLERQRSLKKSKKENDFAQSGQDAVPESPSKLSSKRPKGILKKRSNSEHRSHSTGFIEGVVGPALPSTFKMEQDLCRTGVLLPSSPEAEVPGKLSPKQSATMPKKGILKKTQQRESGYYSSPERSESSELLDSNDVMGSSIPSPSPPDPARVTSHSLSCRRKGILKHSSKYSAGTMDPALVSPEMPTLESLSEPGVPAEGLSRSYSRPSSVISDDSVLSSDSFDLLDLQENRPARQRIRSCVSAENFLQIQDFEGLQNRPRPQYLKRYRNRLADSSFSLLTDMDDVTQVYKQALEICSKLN
The experiment can be described thus: TR-FRET LanthaScreen Eu Kinase Binding Assay, NUAK1 (Example 72). Particulars: Example 72 text; read-out: IC50, Inhibitory Activity Toward NUAK1. The protocol:
(§1) The compounds in Tables 5-6 were tested for their inhibitory effect on a set of kinases according to the following procedures.
(§2) The basic protocol for TR-FRET LanthaScreen Eu Kinase Binding Assay inhibitor studies were performed as follows. LanthaScreen Kinase Binding Assays (ThermoFisher/USA) to evaluate inhibitors were performed by addition of 5 μl of test compound in corresponding DMSO dilutions/5 μl of kinase/antibody mixture, 5 μl of tracer into 384 well small volume plates. After incubation for 1 hour at room temperature, plates were read. Data analysis of emission ratios was according to LanthaScreen Eu Kinase Binding Assay protocol.
(§3) Kinase and assay components were adjusted to final concentrations according to the kit protocol. For LRRK2: 5 nM wt human LRRK2, catalytic site, or G2019S human LRRK2, catalytic site (ThermoFisher/USA), 2 nM Eu-Anti-GST Antibody, 10 nM Kinase Tracer 236 in 1× Kinase Buffer A. For NUAK1: 8 nM wt human NUAK1, full length (ThermoFisher/USA), 2 nM Eu-Anti-His Antibody, 5 nM Kinase Tracer 236 in 1× Kinase Buffer A.

In experiment [2] the target is T2, wt human LRRK2, catalytic site (Homo sapiens, UniProt Q5S007).
T2 construct: wt human LRRK2, catalytic site; purchased ThermoFisher/USA
T2 sequence (Q5S007 1879-2138 limits assumed): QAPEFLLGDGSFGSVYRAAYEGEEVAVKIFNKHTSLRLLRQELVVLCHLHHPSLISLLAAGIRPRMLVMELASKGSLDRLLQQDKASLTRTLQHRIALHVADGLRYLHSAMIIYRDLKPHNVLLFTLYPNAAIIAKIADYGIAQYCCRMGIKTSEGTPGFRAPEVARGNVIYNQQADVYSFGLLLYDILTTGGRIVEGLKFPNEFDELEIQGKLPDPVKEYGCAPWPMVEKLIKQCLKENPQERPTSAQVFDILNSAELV
The experiment can be described thus: TR-FRET LanthaScreen Eu Kinase Binding Assay, LRRK2 wt (Example 72). The following applies: Example 72 text; one statement for LRRK2 (Wt) and LRRK2 (G2019); read-out: IC50, Inhibitory Activity Toward LRRK2 (Wt). The protocol:
as §1, §2, §3
A general note: In TR-FRET formats the signal depends on donor and acceptor labels being close together.

In experiment [3] the target is T3, G2019S human LRRK2, catalytic site (Homo sapiens, UniProt Q5S007, G2019S).
T3 construct: G2019S human LRRK2, catalytic site; purchased ThermoFisher/USA
T3 sequence (Q5S007 1879-2138 G2019S limits assumed): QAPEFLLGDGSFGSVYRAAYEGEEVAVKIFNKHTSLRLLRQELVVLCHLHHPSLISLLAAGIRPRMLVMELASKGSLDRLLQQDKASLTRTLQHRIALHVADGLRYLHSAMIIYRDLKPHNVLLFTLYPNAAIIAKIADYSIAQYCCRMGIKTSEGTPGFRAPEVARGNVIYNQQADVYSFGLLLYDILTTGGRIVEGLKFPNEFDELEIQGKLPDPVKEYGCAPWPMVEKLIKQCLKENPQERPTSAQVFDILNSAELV
The experiment can be described thus: TR-FRET LanthaScreen Eu Kinase Binding Assay, LRRK2 G2019S (Example 72). Particulars: Example 72 text; one statement for LRRK2 (Wt) and LRRK2 (G2019); read-out: IC50, Inhibitory Activity Toward LRRK2 (G2019). The protocol:
as §1, §2, §3

Experiment [4] deals with T4, wt human TYK2, catalytic site (Homo sapiens, UniProt P29597).
T4 construct: wt human TYK2, catalytic site; purchased SignalChem/CAN
T4 sequence (P29597 897-1176 limits assumed): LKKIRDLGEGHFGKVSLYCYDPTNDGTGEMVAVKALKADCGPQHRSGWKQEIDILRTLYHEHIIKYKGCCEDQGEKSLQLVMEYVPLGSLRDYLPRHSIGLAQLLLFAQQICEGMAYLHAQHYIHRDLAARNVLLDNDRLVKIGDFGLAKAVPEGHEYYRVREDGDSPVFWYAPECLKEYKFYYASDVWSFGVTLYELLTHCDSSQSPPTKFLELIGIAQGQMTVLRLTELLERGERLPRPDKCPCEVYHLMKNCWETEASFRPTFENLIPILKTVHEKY
Description: HTRF KinEASE assay, TYK2 (Example 72). The class given is biochemical. Particulars: Example 72 text; read-out: IC50, Inhibitory Activity Toward TYK2. The protocol: as §1
Basic protocol for HTRF KinEASE assay (Cisbio/FRA) inhibitor studies involved two steps:
Enzymatic step: Addition of 4 μl of test compound in corresponding DMSO dilutions, 4 μl of kinase/substrate mixture, 2 μl of ATP into 384 well small volume plates. Incubation for at least 30 minutes at room temperature.
Detection step: Addition of 5 μl antibody and 5 μl streptavidin-XL665, read plate after 60 minutes. Data analysis of emission ratios according to KinEASE assay protocol.
Kinase and assay components were adjusted to final concentrations according to the kit protocol. For TYK2: 2 nM wt human TYK2, catalytic site (SignalChem/CAN), 1 μM HTRF KinEASE-TK Substrate-biotin, 1 μM ATP in 1× Kinase Buffer

As usually defined, the IC50 is the concentration at which inhibition is half-maximal. With `Fc1cccc(F)c1C1=Nc2c[nH]nc2-c2cccc3ncn1c23` [Compound 301, 3-(2,6-difluorophenyl)-7H-1,2a,4,6,7-pentaazabenzo[cd]cyclopenta[f]azulene], the IC50 in experiment [1] was 10 to 100 nM; in experiment [2], less than 10 nM; in experiment [3], less than 10 nM.

Consider `Fc1cccc(F)c1C1=Nc2c[nH]nc2-c2cccc3cnn1c23` [Compound 302, 4-(2,6-difluorophenyl)-8H-pyrazolo[4′,3′:4,5][1,3]diazepino[6,7,1-hi]indazole], for which the IC50 in experiment [2] and in experiment [3] was less than 10 nM each time.

`Fc1cccc(F)c1C1=Nc2cn[nH]c2-c2cncc3ncn1c23` [Compound 303, 3-(2,6-difluorophenyl)-7H-1,2a,4,6,7,9-hexaazabenzo[cd]cyclopenta[f]azulene]: the IC50 in experiment [4] lay in the range of 100 to 1000 nM; in experiment [1], 10 to 100 nM; in experiment [2] it was 100 to 1000 nM; in experiment [3], 100 to 1000 nM.

Regarding `Fc1cccc(F)c1C1=Nc2cn[nH]c2-c2cccc3nnn1c23` [Compound 304, 3-(2,6-difluorophenyl)-7H-1,2,2a,4,6,7-hexaazabenzo[cd]cyclopenta[f]azulene], the IC50 in experiment [1], in experiment [2] and in experiment [3] was 10 to 100 nM each time.

As to `Fc1cccc(Cl)c1C1=Nc2cn[nH]c2-c2cccc3cnn1c23` [Compound 306, 4-(2-chloro-6-fluorophenyl)-8H-pyrazolo[4′,3′:4,5][1,3]diazepino[6,7,1-hi]indazole], the IC50 in experiment [1], in experiment [2] and in experiment [3] was 10 to 100 nM throughout.

Regarding `Fc1cccc(F)c1C1=Nc2cn[nH]c2-c2nnc3cccn1c2-3` [Compound 307, 9-(2,6-difluorophenyl)-3H-2,3,4,5,8a,10-hexaazabenzo[cd]cyclopenta[h]azulene], the IC50 in experiment [1], in experiment [2] and in experiment [3] was 10 to 100 nM in each case.

`Fc1cccc(F)c1C1=Nc2cn[nH]c2-c2cnn3c2N1CCC3` [Compound 308, 9-(2,6-difluorophenyl)-3,6,7,8-tetrahydro-2,3,5,5a,8a,10-hexaazabenzo[cd]cyclopenta[h]azulene]: the IC50 in experiment [1] was 10 to 100 nM; in experiment [2] it was less than 10 nM; in experiment [3], less than 10 nM.

Consider `Clc1cccc(Cl)c1C1=Nc2c[nH]nc2-c2cccc3cnn1c23` [Compound 309, 4-(2,6-dichlorophenyl)-8H-pyrazolo[4′,3′:4,5][1,3]diazepino[6,7,1-hi]indazole], for which the IC50 in experiment [2] and in experiment [3] was less than 10 nM each time.

Regarding `CC(=O)n1cc2c3c(cccc31)-c1n[nH]cc1N=C2c1c(F)cccc1F` [Compound 311, 1-(3-(2,6-difluorophenyl)pyrazolo[3′,4′:6,7]azepino[3,4,5-cd]indol-1(7H)-yl)ethan-1-one], the IC50 in experiment [2] and in experiment [3] was 10 to 100 nM throughout.

With `Cc1cn2c3c(cccc13)-c1n[nH]cc1N=C2c1c(F)cccc1F` [Compound 313, 10-(2,6-difluorophenyl)-7-methyl-3H-pyrazolo[4′,3′:4,5][1,3]diazepino[6,7,1-hi]indole], the figures for the IC50 in experiment [1], in experiment [2] and in experiment [3] were 10 to 100 nM, less than 10 nM and less than 10 nM, respectively.

On to `Fc1cc2c3c(cnn3C(c3c(F)cccc3F)=Nc3c[nH]nc3-2)c1` [Compound 314, 4-(2,6-difluorophenyl)-10-fluoro-7H-pyrazolo[4′,3′:4,5][1,3]diazepino[6,7,1-hi]indazole], for which the IC50 in experiment [4], in experiment [2] and in experiment [3] was 100 to 1000 nM throughout.

Take `Fc1ccc(F)c(C2=Nc3c[nH]nc3-c3cccc4cnn2c34)c1` [Compound 315, 4-(2,5-difluorophenyl)-8H-pyrazolo[4′,3′:4,5][1,3]diazepino[6,7,1-hi]indazole]: the IC50 in experiment [1] is 10 to 100 nM; in experiment [2] it was less than 10 nM; in experiment [3] it was less than 10 nM.

`Fc1ccccc1C1=Nc2c[nH]nc2-c2cccc3cnn1c23` [Compound 316, 4-(2-fluorophenyl)-8H-pyrazolo[4′,3′:4,5][1,3]diazepino[6,7,1-hi]indazole]: the IC50 in experiment [2] and in experiment [3] was 10 to 100 nM each time.

Take `Fc1cccc(F)c1C1=Nc2cn[nH]c2-c2ccc(F)c3cnn1c23` [Compound 317, 4-(2,6-difluorophenyl)-11-fluoro-8H-pyrazolo[4′,3′:4,5][1,3]diazepino[6,7,1-hi]indazole]: the IC50 is 10 to 100 nM in experiment [1], less than 10 nM in experiment [2] and less than 10 nM in experiment [3].
